The subject of the experiment is rat small-intestinal brush border membrane vesicles. Kind of experiment: Inhibitory effect on 33PO4 uptake into rat small-intestinal brush border membrane vesicles (rapid filtration method). As to conditions: 33PO4 uptake into rat small-intestinal BBMVs; test compound 1 µM; reacted for 60 seconds. It counts as biochemical. On the procedure: Brush border membrane vesicles (BBMVs) were prepared using the upper region of the small intestine of each Wistar female rat (4-5 weeks old). […] The ^33PO4 transport activity of the small-intestinal BBMVs was determined by the rapid filtration method. […] Then, ice-cold buffer C (110 mM NaCl, 1 mM KH2PO4, and 10 mM HEPES (pH 7.5)) was added to each reaction mixture, which was immediately suctionfiltered through a Millipore filter. The filter was washed with buffer C, and each sample was then dissolved in a liquid scintillator. The amount of ^33PO4 uptake into BBMVs was measured using a liquid scintillation counter. […]
Turning to `CN1N(Cc2ccc(OCCCCCCC(=O)O)c(F)c2F)C(=O)C(C(=O)Nc2ccc(C(F)(F)F)cc2-c2cc(C(F)(F)F)ncn2)=C(O)C12CCCC2` [Example 335], the “Rate of uptake inhibition (%) (1 µM)” value came to 30%. For the compound `C[C@]12CCCN1N(Cc1ccc(F)c(F)c1)C(=O)C(C(=O)Nc1cc(F)c(Br)c(F)c1)=C2O` [Example 191], the “Rate of uptake inhibition (%) (1 µM)” value is 87%.

Regarding `CN1[C@@H](C(C)(C)C)C(O)=C(C(=O)Nc2ccc(Br)c(C(F)(F)F)c2)C(=O)N1Cc1cccc(F)c1F` [Example 243], the “Rate of uptake inhibition (%) (1 µM)” value is 63%.

Turning to `C[C@]12CCCN1N(Cc1cccc(F)c1F)C(=O)C(C(=O)Nc1ccc(Br)cc1-c1cc(C(F)(F)F)ncn1)=C2O` [Example 64], the “Rate of uptake inhibition (%) (1 µM)” value is recorded as 77%. The value for `COCCN(C)CCN(C)c1ccc(CN2C(=O)C(C(=O)Nc3ccc(C(F)(F)F)cc3-c3cc(C(F)(F)F)ncn3)=C(O)C3(CCCC3)N2C)c(F)c1F` [Example 442] was 24%; that for `CN1N(Cc2ccc(C#CCN3CCOCC3)c(F)c2F)C(=O)C(C(=O)Nc2ccc(C(F)(F)F)cc2-c2cc(C(F)(F)F)ncn2)=C(O)C1(C)C` [Example 315, 2-[[2,3-Difluoro-4-(3-morpholin-4-ylprop-1-ynil)phenyl]methyl]-5-hydroxy-1,6,6-trimethyl-3-oxo-N-[4-(trifluoromethyl)-2-[6-(trifluoromethyl)pyrimidin-4-yl]phenyl]pyridazine-4-carboxamide] was 63%; that for `C[C@]12CCCN1N(Cc1c(F)cccc1F)C(=O)C(C(=O)Nc1ccc(C(F)(F)F)cc1-c1cc(C(F)(F)F)ncn1)=C2O` [Example 212] was 98%. As to `CN1N(Cc2cccc(F)c2F)C(=O)C(C(=O)Nc2ccc(C(F)(F)F)nc2-c2ccc(C(F)(F)F)nc2)=C(O)C1(C)C` [Example 304], the “Rate of uptake inhibition (%) (1 µM)” value was 51%. On to `CN1N(Cc2ccc(OCCN3CCOCC3)c(F)c2F)C(=O)C(C(=O)Nc2ccc(Cl)cc2-c2cc(C(F)(F)F)ncn2)=C(O)C12CCCC2` [Example 286], for which the “Rate of uptake inhibition (%) (1 µM)” value came to 50%. Consider `CN1N(Cc2ccc(OCCCCOC[C@H](O)CO)c(F)c2F)C(=O)C(C(=O)Nc2ccc(C(F)(F)F)cc2-c2cc(C(F)(F)F)ncn2)=C(O)C12CCC2` [Example 390], for which the “Rate of uptake inhibition (%) (1 µM)” value was found to be 58%.

Regarding `CC(C)[C@H]1C(O)=C(C(=O)Nc2ccc(Cl)cc2-c2ccc(C(F)(F)F)nc2)C(=O)N(Cc2ccc(OCCN3CCOCC3)c(F)c2F)N1C` [Example 281], the “Rate of uptake inhibition (%) (1 µM)” value is 41%. To `C[C@]12CCCN1N(Cc1cccc(F)c1F)C(=O)C(C(=O)Nc1ccc(C(F)(F)F)cc1-c1cc(C(F)(F)F)ncn1)=C2O` [Example 21, (4aR)-1-[(2,3-Difluorophenyl)methyl]-4-hydroxy-4a-methyl-2-oxo-N-[4-(trifluoromethyl)-2-[6-(trifluoromethyl)pyrimidin-4-yl]phenyl]-6,7-dihydro-5H-pyrrolo[1,2-b]pyridazine-3-carboxamide] belongs 61%. In the case of `CN1N(Cc2cccc(F)c2F)C(=O)C(C(=O)Nc2ccc(C(F)(F)F)cc2-c2cc(C#N)ncn2)=C(O)C1(C)C` [Example 303], the “Rate of uptake inhibition (%) (1 µM)” value is recorded as 42%.

As to `CN1N(Cc2ccc(OCCN[C@@H](CC(=O)O)C(=O)O)c(F)c2F)C(=O)C(C(=O)Nc2ccc(C(F)(F)F)cc2-c2cc(C(F)(F)F)ncn2)=C(O)C12CCCC2` [Example 381, (2S)-2-[2-[2,3-Difluoro-4-[[10-hydroxy-6-methyl-8-oxo-9-[[4-trifluoromethyl-2-[6-(trifluoromethyl)pyrimidin-4-yl]phenyl]carbamoyl]-6,7-diazaspiro[4.5]dec-9-en-7-yl]methyl]phenoxy]ethylamino]butanedioate], the “Rate of uptake inhibition (%) (1 µM)” value came out at 28%. On to `CN1N(Cc2ccc(OCC(=O)N3CCOCC3)c(F)c2F)C(=O)C(C(=O)Nc2ccc(C(F)(F)F)cc2-c2cc(C(F)(F)F)ncn2)=C(O)C12CCC2` [Example 336], for which the “Rate of uptake inhibition (%) (1 µM)” value stood at 44%. In the case of `CN1N(Cc2ccc(OCCN3C4CCC3COC4)c(F)c2F)C(=O)C(C(=O)Nc2ccc(C(F)(F)F)cc2-c2cc(C(F)(F)F)ncn2)=C(O)C12CCCC2` [Example 367], the “Rate of uptake inhibition (%) (1 µM)” value came to 43%. For the compound `COC(=O)c1cccc(-c2cc(C(F)(F)F)ccc2NC(=O)C2=C(O)[C@@]3(C)CCCN3N(Cc3cccc(F)c3F)C2=O)c1OC` [Example 65], the “Rate of uptake inhibition (%) (1 µM)” value was determined as 98%. To `CN1N(Cc2ccc(OCCN3CCN(CCO)CC3)c(F)c2F)C(=O)C(C(=O)Nc2ccc(C(F)(F)F)cc2-c2cc(C(F)(F)F)ncn2)=C(O)C12CCCC2` [Example 376] belongs 33%; to `COc1cccc(-c2cc(C(F)(F)F)ccc2NC(=O)C2=C(O)[C@@]3(C)CCCN3N(Cc3cccc(F)c3F)C2=O)n1` [Example 93], 56%; to `CN1N(Cc2ccc(OCCN3CCOC(C)(C)C3)c(F)c2F)C(=O)C(C(=O)Nc2ccc(C(F)(F)F)cc2-c2cc(C(F)(F)F)ncn2)=C(O)C12CCC2` [Example 342], 43%.

For the compound `C[C@]12CCCN1N(Cc1c(F)cc(C#CCCCCOC[C@H](O)CO)cc1F)C(=O)C(C(=O)Nc1ccc(C(F)(F)F)cc1-c1ccc(C(F)(F)F)nc1)=C2O.[Na+]` [Example 143], the “Rate of uptake inhibition (%) (1 µM)” value turned out to be 71%. On to `CN1N(Cc2ccc(OCCNCCS(=O)(=O)O)c(F)c2F)C(=O)C(C(=O)Nc2ccc(C(F)(F)F)cc2-c2cc(C(F)(F)F)ncn2)=C(O)C12CCCC2` [Example 435, 2-[2-[2,3-Difluoro-4-[[10-hydroxy-6-methyl-8-oxo-9-[[4-(trifluoromethyl)-2-[6-(trifluoromethyl)pyrimidin-4-yl]phenyl]carbamoyl]-6,7-diazaspiro[4.5]dec-9-en-7-yl]methyl]phenoxy]ethylamino]ethanesulfonic acid], for which the “Rate of uptake inhibition (%) (1 µM)” value is on record as 11%.

Consider `C[C@]12CCCN1N(Cc1c(F)cc(C#CC3(O)CCCC3)cc1F)C(=O)C(C(=O)Nc1ccc(C(F)(F)F)cc1-c1ccc(C(F)(F)F)nc1)=C2O` [Example 130], for which the “Rate of uptake inhibition (%) (1 µM)” value turned out to be 72%.

For `C[C@]12CCCN1N(Cc1cccc(F)c1F)C(=O)C(C(=O)Nc1ccc(C(F)(F)F)cc1-c1cnc(Br)cn1)=C2O` [Example 73], the “Rate of uptake inhibition (%) (1 µM)” value is listed as 74%.

Consider `COC(=O)c1cc(F)c(CN2C(=O)C(C(=O)Nc3ccc(C(F)(F)F)cc3-c3ccc(C(F)(F)F)nc3)=C(O)[C@@]3(C)CCCN23)c(F)c1` [Example 165, Methyl 4-[[(4aR)-4-Hydroxy-4a-methyl-2-oxo-3-[[4-(trifluoromethyl)-2-[6-(trifluoromethyl)pyridin-3-yl]phenyl]carbamoyl]-6,7-dihydro-5H-pyrrolo[1,2-b]pyridazin-1 - yl]methyl]-3,5-difluorobenzoate], for which the “Rate of uptake inhibition (%) (1 µM)” value is 75%. With `C[C@]12CCCN1N(Cc1cccc(F)c1F)C(=O)C(C(=O)Nc1ccc(Cl)cc1-c1ccc(C(F)(F)F)nc1)=C2O` [Example 86], the “Rate of uptake inhibition (%) (1 µM)” value is 83%. As to `C[C@]12CCCN1N(Cc1c(F)cc(OCCCCCCOC[C@@H](O)CO)cc1F)C(=O)C(C(=O)Nc1ccc(C(F)(F)F)cc1-c1ccc(C(F)(F)F)nc1)=C2O` [Example 154], the “Rate of uptake inhibition (%) (1 µM)” value came to 73%.

On to `C[C@]12CCCN1N(Cc1cc(F)ccc1F)C(=O)C(C(=O)Nc1cc(F)c(Br)c(F)c1)=C2O` [Example 193], for which the “Rate of uptake inhibition (%) (1 µM)” value turned out to be 82%. Turning to `COCCN(CCOC)CCOc1ccc(CN2C(=O)C(C(=O)Nc3ccc(C(F)(F)F)cc3-c3cc(C(F)(F)F)ncn3)=C(O)C3(CCC3)N2C)c(F)c1F` [Example 348], the “Rate of uptake inhibition (%) (1 µM)” value was determined as 31%.

As for `C[C@]12CCCN1N(Cc1ccc(Cl)cc1)C(=O)C(C(=O)Nc1cc(F)c(Br)c(F)c1)=C2O` [Example 223], the “Rate of uptake inhibition (%) (1 µM)” value is on record as 77%.

Turning to `CN1N(Cc2ccc(OCCN3[C@@H]4COC[C@H]3C4)c(F)c2F)C(=O)C(C(=O)Nc2ccc(C(F)(F)F)cc2-c2cc(C(F)(F)F)ncn2)=C(O)C12CCCC2` [Example 380], the “Rate of uptake inhibition (%) (1 µM)” value came out at 43%. Consider `C[C@]12CCCN1N(Cc1cccc(F)c1F)C(=O)C(C(=O)Nc1ccc(Br)cc1F)=C2O` [Example 75], for which the “Rate of uptake inhibition (%) (1 µM)” value stood at 74%. For `CSc1ncc(-c2cc(C(F)(F)F)ccc2NC(=O)C2=C(O)[C@@]3(C)CCCN3N(Cc3ccc(OCCN4CCOCC4)c(F)c3F)C2=O)cn1` [Example 104], the “Rate of uptake inhibition (%) (1 µM)” value is recorded as 73%. To `CN1N(Cc2ccc(NCCN3CCOCC3)c(F)c2F)C(=O)C(C(=O)Nc2ccc(C(F)(F)F)cc2-c2cc(C(F)(F)F)ncn2)=C(O)C12CCCC2` [Example 447] belongs 50%; to `CC(C)[C@H]1C(O)=C(C(=O)Nc2ccc(C(F)(F)F)cc2-c2ccc(C(F)(F)F)nc2)C(=O)N(Cc2cccc(F)c2F)N1C` [Example 253], 40%. As for `C[C@]12CCCN1N(Cc1ccccc1C#N)C(=O)C(C(=O)Nc1ccc(C(F)(F)F)cc1-c1cc(C(F)(F)F)ncn1)=C2O` [Example 178], the “Rate of uptake inhibition (%) (1 µM)” value is on record as 81%. Take `C[C@]12CCCN1N(Cc1ccc(SCCN3CCOCC3)c(F)c1F)C(=O)C(C(=O)Nc1ccc(C(F)(F)F)cc1-c1ccc(C(F)(F)F)nc1)=C2O.Cl` [Example 163, (4aR)-1-[[2,3-Difluoro-4-(2-morpholin-4-ylethylsulfanyl)phenyl]methyl]-4-hydroxy-4a-methyl-2-oxo-N-[4-(trifluoromethyl)-2-[6-(trifluoromethyl)pyridin-3-yl]phenyl]-6,7-dihydro-5H-pyrrolo[1,2-b]pyridazine-3-carboxamide hydrochloride]: the “Rate of uptake inhibition (%) (1 µM)” value came out at 79%. Consider `CN(CCO)CCOc1ccc(CN2C(=O)C(C(=O)Nc3ccc(C(F)(F)F)cc3-c3cc(C(F)(F)F)ncn3)=C(O)C3(CCC3)N2C)c(F)c1F` [Example 347], for which the “Rate of uptake inhibition (%) (1 µM)” value is 28%.

Source of the values: EP3928779A1 (Chugai Seiyaku Kabushiki Kaisha, priority 2014, dated 2016).
